Measured values published in article PMC6804006, “Synthesis, Biological Activities and Docking Studies of Novel 4-(Arylaminomethyl)benzamide Derivatives as Potential Tyrosine Kinase Inhibitors” (Molecules, 2019).
pIC50: −log10 of the molar value.

Experiments:
[1] = system: K-562 (chronic myelogenous leukemia); assay: MTT anti-proliferative assay, K-562; format: cell-based; conditions: Homo sapiens, K562, 48 h, 50% growth inhibition
Method: (§1) Each in vitro experiment was performed at least in triplicate, and the standard deviation of absorbance was less than 10% of the mean. For the in vitro assays, a stock solution (1% DMSO in the appropriate buffer with the tested compound diluted under sonication) was prepared from which several dilutions were made with the appropriate buffer.
(§2) Human cell lines were obtained from the Institute of Cytology, Russian Academy of Sciences. […] Cellular sensitivities to clofarabine and its lipid derivatives were measured with the MTT assay. Cells were plated in triplicate in 96-well plates (10^5 cells/well for suspended cell cultures and 5 × 10^3 cells/well for monolayer cultures); on the same day (suspended cell cultures) or on the following day (monolayer cultures), compounds were added at the appropriate dilutions. Plates were incubated under standard conditions for 48 h. Thereafter, 10 μL of MTT (Sigma) in phosphate-buffered saline (5 mg/mL) was added. The plates were incubated for an additional 4 h, and 150 μL of dimethyl sulfoxide (DMSO) was added to dissolve the formazan crystals. The optical density was read on a HALO MPR-95 Microplate Reader (Dynamica Scientific Ltd., Australia) at 570 nm. The antiproliferative effects were determined as degrees of inhibition of tumor cells (%).

[2] = system: HL-60 (promyelocytic leukemia); assay: MTT anti-proliferative assay, HL-60; format: cell-based, human; conditions: Homo sapiens, HL-60, 48 h, 50% growth inhibition
Method: as §1, §2

[3] = system: RPMI 1788 (B lymphocyte, human normal cells); assay: MTT assay on normal cells RPMI 1788; format: cell-based; conditions: MTT 48 h
Method: as §1
Human cell lines were obtained from the Institute of Cytology, Russian Academy of Sciences. The cell lines studied were maintained in RPMI 1640 medium (AppliChem, Darmstadt, Germany) supplemented with 20% (HL-60, RPMI 1788) fetal calf serum (HyClone, Cramlington, UK), in DMEM (A 549) and Eagle’s MEM (AppliChem) (MCF7, HeLa) with 10% fetal calf serum (HyClone). Cells were cultivated at 37 °C in a humidified atmosphere of 5% CO2. Cellular sensitivities to clofarabine and its lipid derivatives were measured with the MTT assay. Cells were plated in triplicate in 96-well plates (10^5 cells/well for suspended cell cultures and 5 × 10^3 cells/well for monolayer cultures); on the same day (suspended cell cultures) or on the following day (monolayer cultures), compounds were added at the appropriate dilutions. Plates were incubated under standard conditions for 48 h. Thereafter, 10 μL of MTT (Sigma) in phosphate-buffered saline (5 mg/mL) was added. The plates were incubated for an additional 4 h, and 150 μL of dimethyl sulfoxide (DMSO) was added to dissolve the formazan crystals. The optical density was read on a HALO MPR-95 Microplate Reader (Dynamica Scientific Ltd., Australia) at 570 nm. The antiproliferative effects were determined as degrees of inhibition of tumor cells (%).

[4] = target: T1, EGFR (Homo sapiens, UniProt P00533); assay: ADP-Glo kinase inhibitory assay, EGFR; format: biochemical; conditions: read-out: % Inhibition at 10 nM, EGFR
T1 construct: purchased Promega
Method: (§3) We investigated the kinase selectivity of targeted compounds against eight receptor tyrosine kinases including EGFR (epidermal growth factor receptor), HER-2 and HER4 (human epidermal growth factor receptor), IGF1R (insulin like growth factor 1 receptor), InsR (gene insulin receptor), KDR (kinase insert domain receptor), and PDGFRa and PDGFRb (platelet-derived growth factor receptors). The assay was performed using the Kinase-Glo Plus luminescence kinase assay kit (TK-1+ADP-Glo™, Promega, San Diego, CA, USA). It measures kinase activity by quantitating the amount of ATP remaining in solution following a kinase reaction.
(§4) The assay was performed using a Kinase Selectivity Profiling System (TK-1+ADP-Glo™ Assay and TK-2+ADP-Glo™ Assay, Promega), where the kinase activity was measured by quantifying the amount of ADP produced during a kinase reaction. The assay is performed in two steps; firstly, after the kinase reaction, an equal volume of ADP-Glo™ Reagent is added to terminate the kinase reaction and deplete the remaining ATP. Secondly, the Kinase Detection Reagent is added to simultaneously convert ADP to ATP and allow the newly synthesized ATP to be measured using a luciferase/luciferin reaction. The luminescent signal generated is proportional to the ADP concentration produced and is correlated with kinase activity. Our compounds were diluted with kinase buffer (5% DMSO), and 1 μL of the dilution was added to a 5-μL reaction so that the final concentration of DMSO was 1% in all of reactions. All of the enzymatic reactions were conducted at 23 °C for 60 min. The 5-μL reaction mixture contained 1µL of the compound solution, 2µL of the enzyme solution, and 2 µL of kinase substrate. After the enzymatic reaction, 5 µL of ADP-Glo™ Reagent (Promega, USA) was added to each reaction, and the plate was incubated for 40 min at 23 °C. Then, 10 µL of Kinase Detection Reagent (Promega, USA) was added to each reaction, and the plate was incubated for 30 min at 23 °C. Luminescence signal was measured using an Infinite M 200 plate reader (Tecan, Switzerland).
(§5) Kinase activity assays were performed in duplicate at each concentration. The luminescence data were analyzed using the computer software, Magellan™. The difference between luminescence intensities in the absence of Kinase (Lut) and in the presence of Kinase (Luc) was defined as 100% activity (Lut − Luc).

[5] = target: T2, PDGFRa (Homo sapiens, UniProt P16234); assay: ADP-Glo kinase inhibitory assay, PDGFRa; format: biochemical; conditions: read-out: % Inhibition at 10 nM, PDGFRa
T2 construct: purchased Promega
Method: as §3, §4, §5

[6] = target: T3, HER-2 (Homo sapiens, UniProt P04626); assay: ADP-Glo kinase inhibitory assay, HER-2; format: biochemical; conditions: read-out: % Inhibition at 10 nM, HER-2
T3 construct: purchased Promega
Method: as §3, §4, §5

[7] = target: T4, IGF1R (Homo sapiens, UniProt P08069); assay: ADP-Glo kinase inhibitory assay, IGF1R; format: biochemical; conditions: read-out: % Inhibition at 10 nM, IGF1R
T4 construct: purchased Promega
Method: as §3, §4, §5

[8] = target: T5, HER-4 (Homo sapiens, UniProt Q15303); assay: ADP-Glo kinase inhibitory assay, HER-4; format: biochemical; conditions: for inhibitory activity in relation to HER-4, in words: 10 nM, compared with imatinib; for inhibition at 0.01 µM: read-out: % Inhibition at 10 nM, HER-4
T5 construct: purchased Promega
Method: as §3, §4, §5

[9] = target: T6, InsR (Homo sapiens, UniProt P06213); assay: ADP-Glo kinase inhibitory assay, InsR; format: biochemical; conditions: for inhibition at 0.01 µM: read-out: % Inhibition at 10 nM, InsR; for selectivity for the gene insulin receptor, in words: 10 nM, panel of eight receptor tyrosine kinases
T6 construct: purchased Promega
Method: as §3, §4, §5

[10] = target: T7, KDR (VEGFR2) (Homo sapiens, UniProt P35968); assay: ADP-Glo kinase inhibitory assay, KDR; format: biochemical; conditions: 10 nM
T7 construct: purchased Promega
Method: as §3
Vascular endothelial growth factor receptor 2 (VEGFR2), also called kinase insert domain receptor (KDR), is a tyrosine kinase receptor for VEGFs that plays a central role in tumor angiogenesis; therefore, the inhibition of VEGFR2 is a promising therapeutic strategy for inhibiting angiogenesis and tumor growth.
as §4, §5

[11] = target: T8, PDGFRb (Homo sapiens, UniProt P09619); assay: ADP-Glo kinase inhibitory assay, PDGFRb; format: biochemical; conditions: read-out: % Inhibition at 10 nM, PDGFRb
T8 construct: purchased Promega
Method: as §3, §4, §5

[12] = system: MCF-7 (breast adenocarcinoma); assay: MTT anti-proliferative assay, MCF-7; format: cell-based; conditions: Homo sapiens, MCF7, 48 h, 50% growth inhibition
Method: as §1, §2

[13] = system: A549 (lung carcinoma); assay: MTT anti-proliferative assay, A-549; format: cell-based; conditions: Homo sapiens, 48 h, 50% growth inhibition
Method: as §1, §2

T4 sequence (P08069 31-1367): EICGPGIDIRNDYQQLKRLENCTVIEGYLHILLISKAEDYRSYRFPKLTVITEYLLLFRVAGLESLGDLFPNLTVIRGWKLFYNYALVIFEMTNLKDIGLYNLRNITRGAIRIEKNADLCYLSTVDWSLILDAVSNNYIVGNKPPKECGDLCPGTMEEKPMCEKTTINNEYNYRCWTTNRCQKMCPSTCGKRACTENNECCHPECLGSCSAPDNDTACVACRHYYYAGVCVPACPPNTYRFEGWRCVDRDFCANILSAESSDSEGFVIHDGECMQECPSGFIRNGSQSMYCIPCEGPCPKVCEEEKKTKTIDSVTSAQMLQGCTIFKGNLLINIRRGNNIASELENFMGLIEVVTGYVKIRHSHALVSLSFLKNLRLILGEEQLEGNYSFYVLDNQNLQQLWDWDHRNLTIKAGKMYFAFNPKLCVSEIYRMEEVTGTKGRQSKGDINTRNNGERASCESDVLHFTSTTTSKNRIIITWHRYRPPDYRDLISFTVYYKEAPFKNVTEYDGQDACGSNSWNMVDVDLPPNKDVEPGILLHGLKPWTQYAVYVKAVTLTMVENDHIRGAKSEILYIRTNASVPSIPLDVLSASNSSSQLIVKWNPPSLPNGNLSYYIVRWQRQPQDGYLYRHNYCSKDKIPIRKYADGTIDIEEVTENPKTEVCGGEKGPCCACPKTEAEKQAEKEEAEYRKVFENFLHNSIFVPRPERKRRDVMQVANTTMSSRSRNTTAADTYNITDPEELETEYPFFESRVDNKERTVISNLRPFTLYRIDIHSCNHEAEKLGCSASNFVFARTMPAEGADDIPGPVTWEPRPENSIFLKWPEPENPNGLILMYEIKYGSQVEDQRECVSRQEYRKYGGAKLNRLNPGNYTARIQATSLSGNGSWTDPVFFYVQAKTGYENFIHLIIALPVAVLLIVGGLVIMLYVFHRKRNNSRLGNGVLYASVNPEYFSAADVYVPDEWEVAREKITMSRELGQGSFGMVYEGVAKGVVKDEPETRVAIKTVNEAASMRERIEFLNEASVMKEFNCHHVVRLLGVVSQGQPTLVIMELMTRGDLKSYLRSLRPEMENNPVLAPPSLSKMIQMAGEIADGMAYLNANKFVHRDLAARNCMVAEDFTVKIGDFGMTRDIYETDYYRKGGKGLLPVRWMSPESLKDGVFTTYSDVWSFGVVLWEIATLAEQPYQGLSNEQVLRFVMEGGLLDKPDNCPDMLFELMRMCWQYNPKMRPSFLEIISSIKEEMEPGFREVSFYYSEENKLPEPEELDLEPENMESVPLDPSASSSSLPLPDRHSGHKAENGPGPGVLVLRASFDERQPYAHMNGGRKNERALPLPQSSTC
T6 sequence (P06213 28-1382): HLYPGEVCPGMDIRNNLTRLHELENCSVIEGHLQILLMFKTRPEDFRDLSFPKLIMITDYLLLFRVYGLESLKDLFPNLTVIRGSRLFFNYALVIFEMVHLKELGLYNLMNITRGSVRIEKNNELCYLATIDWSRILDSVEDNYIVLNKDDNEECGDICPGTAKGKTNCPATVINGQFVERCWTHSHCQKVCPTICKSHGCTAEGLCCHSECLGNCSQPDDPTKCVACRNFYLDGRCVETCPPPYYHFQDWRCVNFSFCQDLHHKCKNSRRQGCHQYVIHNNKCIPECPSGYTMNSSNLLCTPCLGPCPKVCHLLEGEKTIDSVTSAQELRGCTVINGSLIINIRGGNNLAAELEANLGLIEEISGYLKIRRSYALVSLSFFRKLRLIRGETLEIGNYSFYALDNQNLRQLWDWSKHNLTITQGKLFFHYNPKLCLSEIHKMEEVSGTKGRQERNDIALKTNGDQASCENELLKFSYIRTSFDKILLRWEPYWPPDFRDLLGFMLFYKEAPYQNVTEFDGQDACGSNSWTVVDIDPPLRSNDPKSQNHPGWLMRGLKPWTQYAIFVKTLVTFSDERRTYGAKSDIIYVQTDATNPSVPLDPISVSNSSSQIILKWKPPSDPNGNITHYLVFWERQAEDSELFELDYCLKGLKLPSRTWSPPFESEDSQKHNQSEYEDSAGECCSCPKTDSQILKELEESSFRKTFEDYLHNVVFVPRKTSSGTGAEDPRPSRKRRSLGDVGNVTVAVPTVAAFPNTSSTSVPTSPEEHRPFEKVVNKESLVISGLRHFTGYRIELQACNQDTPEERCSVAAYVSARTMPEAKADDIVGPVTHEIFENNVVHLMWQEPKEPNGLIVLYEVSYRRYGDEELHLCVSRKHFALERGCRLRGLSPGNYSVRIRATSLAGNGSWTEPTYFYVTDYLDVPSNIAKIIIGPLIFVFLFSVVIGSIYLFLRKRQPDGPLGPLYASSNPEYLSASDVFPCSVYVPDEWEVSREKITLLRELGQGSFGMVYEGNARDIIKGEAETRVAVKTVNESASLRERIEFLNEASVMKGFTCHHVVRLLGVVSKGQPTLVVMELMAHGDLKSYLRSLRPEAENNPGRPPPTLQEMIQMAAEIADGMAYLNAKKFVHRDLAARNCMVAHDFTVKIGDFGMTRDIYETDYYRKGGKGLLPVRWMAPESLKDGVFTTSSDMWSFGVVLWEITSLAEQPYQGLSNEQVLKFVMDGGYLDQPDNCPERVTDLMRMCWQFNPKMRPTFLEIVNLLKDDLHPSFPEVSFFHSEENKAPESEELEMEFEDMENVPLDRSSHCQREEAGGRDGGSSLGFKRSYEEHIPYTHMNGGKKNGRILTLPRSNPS
T8 sequence (P09619 33-1106): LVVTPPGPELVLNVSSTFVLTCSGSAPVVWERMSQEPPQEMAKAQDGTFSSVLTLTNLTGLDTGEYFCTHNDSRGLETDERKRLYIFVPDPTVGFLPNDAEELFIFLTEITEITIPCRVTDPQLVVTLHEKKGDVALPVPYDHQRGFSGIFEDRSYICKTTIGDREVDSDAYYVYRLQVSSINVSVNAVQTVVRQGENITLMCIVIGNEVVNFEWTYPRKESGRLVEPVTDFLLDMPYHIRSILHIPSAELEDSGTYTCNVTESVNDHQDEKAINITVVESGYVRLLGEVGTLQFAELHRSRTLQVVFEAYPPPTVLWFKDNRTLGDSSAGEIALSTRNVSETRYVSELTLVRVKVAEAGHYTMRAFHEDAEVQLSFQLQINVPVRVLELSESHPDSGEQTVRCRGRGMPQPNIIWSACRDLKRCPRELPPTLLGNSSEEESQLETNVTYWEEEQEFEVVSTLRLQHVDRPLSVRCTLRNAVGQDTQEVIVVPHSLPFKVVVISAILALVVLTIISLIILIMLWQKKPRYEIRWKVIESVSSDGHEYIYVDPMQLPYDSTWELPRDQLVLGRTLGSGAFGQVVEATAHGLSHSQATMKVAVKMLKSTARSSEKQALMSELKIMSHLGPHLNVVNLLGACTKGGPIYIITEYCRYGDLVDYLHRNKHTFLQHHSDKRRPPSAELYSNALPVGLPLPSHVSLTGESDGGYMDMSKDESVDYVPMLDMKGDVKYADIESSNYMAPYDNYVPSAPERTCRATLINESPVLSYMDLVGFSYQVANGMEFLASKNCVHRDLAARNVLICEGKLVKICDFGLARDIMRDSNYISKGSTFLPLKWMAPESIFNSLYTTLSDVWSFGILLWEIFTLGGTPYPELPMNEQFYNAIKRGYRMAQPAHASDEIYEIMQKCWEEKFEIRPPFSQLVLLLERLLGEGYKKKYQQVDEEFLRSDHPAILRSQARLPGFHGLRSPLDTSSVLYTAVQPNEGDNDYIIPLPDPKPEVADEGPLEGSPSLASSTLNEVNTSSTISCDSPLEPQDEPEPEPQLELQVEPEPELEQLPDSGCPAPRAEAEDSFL
T5 sequence (Q15303 26-1308): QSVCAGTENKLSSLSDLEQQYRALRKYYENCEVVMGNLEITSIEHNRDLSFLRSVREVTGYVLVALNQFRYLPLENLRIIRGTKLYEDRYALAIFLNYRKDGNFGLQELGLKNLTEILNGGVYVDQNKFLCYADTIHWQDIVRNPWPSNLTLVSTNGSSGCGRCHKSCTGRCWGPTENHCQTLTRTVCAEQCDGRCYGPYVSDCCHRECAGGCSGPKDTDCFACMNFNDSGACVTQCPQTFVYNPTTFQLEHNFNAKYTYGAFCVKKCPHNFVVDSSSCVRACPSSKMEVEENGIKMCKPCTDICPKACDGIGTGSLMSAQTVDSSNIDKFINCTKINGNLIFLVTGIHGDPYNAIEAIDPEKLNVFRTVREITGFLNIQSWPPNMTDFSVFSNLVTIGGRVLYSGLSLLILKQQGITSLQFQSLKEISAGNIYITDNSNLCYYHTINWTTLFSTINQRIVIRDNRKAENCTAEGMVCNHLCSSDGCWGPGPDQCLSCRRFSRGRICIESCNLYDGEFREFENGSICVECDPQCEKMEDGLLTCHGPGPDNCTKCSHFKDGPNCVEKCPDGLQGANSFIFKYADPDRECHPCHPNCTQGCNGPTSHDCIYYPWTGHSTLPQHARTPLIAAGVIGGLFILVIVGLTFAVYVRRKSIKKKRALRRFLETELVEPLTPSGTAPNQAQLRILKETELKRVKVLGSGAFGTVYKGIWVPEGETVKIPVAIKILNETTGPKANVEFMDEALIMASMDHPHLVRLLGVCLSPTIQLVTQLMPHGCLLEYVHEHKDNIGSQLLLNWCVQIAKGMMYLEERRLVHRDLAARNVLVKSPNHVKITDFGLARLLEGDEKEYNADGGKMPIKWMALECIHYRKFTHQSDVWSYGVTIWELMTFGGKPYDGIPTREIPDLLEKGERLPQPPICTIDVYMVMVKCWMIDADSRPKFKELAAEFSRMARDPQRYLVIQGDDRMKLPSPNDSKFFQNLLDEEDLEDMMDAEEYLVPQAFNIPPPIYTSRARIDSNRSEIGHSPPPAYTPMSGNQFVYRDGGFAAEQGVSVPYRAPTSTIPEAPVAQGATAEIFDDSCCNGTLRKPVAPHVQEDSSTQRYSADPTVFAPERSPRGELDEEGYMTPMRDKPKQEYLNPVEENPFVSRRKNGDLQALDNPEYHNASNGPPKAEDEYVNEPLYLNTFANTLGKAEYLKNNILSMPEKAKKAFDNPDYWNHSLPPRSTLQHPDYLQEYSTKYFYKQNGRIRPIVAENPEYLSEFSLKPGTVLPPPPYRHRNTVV

Structure (SMILES)	melting point [°C]	pIC50 [1]	pIC50 [2]	inhibition at 100 µM [3] [%]	inhibition at 0.01 µM [4] [%]	inhibition at 0.01 µM [5] [%]	inhibition at 0.01 µM [6] [%]	inhibition at 0.01 µM [7] [%]	inhibitory activity in relation to HER-4, in words [8]	inhibition at 0.01 µM [8] [%]	inhibition at 0.01 µM [9] [%]	inhibition at 0.01 µM [10] [%]	inhibition at 0.01 µM [11] [%]	selectivity for the gene insulin receptor, in words [9]	pIC50 [12]	pIC50 [13]
COC(=O)c1ccc(N)c(NC(=O)c2ccc(CNc3cc([N+](=O)[O-])ccc3C)cc2)c1 [Compound 19, Methyl 4-amino-3-[(4-{[(2-methy-5-nitrophenyl)amino]methyl}benzoyl)amino]benzoate]	208 to 210	4.19	< 4.00	10												
Cc1cn(-c2cc(NC(=O)c3ccc(CN4CCN(C(=O)c5cccc(F)c5)CC4)cc3)cc(C(F)(F)F)c2)cn1 [Compound 28k, 4-{[4-(3-Fluorobenzoyl)piperazin-1-yl]methyl}-N-[3-(4-methyl-1H-imidazol-1-yl)-5-(trifluoromethyl)phenyl]benzamide]	90 to 93	5.44	4.41	3.14	0	0	0	0	comparable to imatinib	43	33	23	2			
CCOC(=O)CCC(NC(=O)c1ccc(CNc2cc(-n3cnc(C)c3)cc(C(F)(F)F)c2)cc1)C(=O)OCC (stereo not shown) [Compound 14, Diethyl(4-(((3-(4-methyl-1H-imidazol-1-yl)-5-(trifluoromethyl)phenyl)amino)methyl)benzoyl)glutamate]	125 to 127	4.30	4.35	10.4	0	0	0	0		0	23	0	0	high selectivity		
Cc1ccc(NC(=O)c2ccc(CN3CCN(C)CC3)cc2)cc1Nc1nccc(-c2cccnc2)n1 [Imatinib, reference compound]				13.4	0	56	0	0		42	36	0	75			
Cc1cn(-c2cc(NC(=O)c3ccc(CN4CCN(C(=O)c5ccccc5F)CC4)cc3)cc(C(F)(F)F)c2)cn1 [Compound 28j, 4-{[4-(2-Fluorobenzoyl)piperazin-1-yl]methyl}-N-[3-(4-methyl-1H-imidazol-1-yl)-5-(trifluoromethyl)phenyl]benzamide]	106 to 109	5.16	4.51	6.44	0	8	0	0		0	50	0	2	high selectivity	4.15	< 4.00
CCOC(=O)CC[C@H](NC(=O)c1ccc(CNc2nccc(-c3cccnc3)n2)cc1)C(=O)OCC [Compound 23, Diethyl (4-(((4-(pyridin-3-yl)pyrimidin-2-yl)amino)methyl)benzoyl)glutamate]	130 to 132	4.18	4.31	11.5	0	0	0	1		12	49	0	0			
O=C(Nc1cccc(C(F)(F)F)c1)c1ccc(CNc2nccc(-c3cccnc3)n2)cc1 [Compound 24, 4-({[4-(Pyridin-3-yl)pyrimidin-2-yl]amino}methyl)-N-[3-(trifluoromethyl)phenyl]benzamide]	138 to 141				24	0	0	0	comparable to imatinib	44	0	2	0			
